Calls of active or inactive are those of the source. No rule for the calls is given here.

For this data set, the system named is CCRIS mutagenicity, Ames/micronucleus/aberration tests. Kind of data set: CCRIS mutagenicity studies.
Where [1] appears, read: Test System: AMES SALMONELLA TYPHIMURIUM, Strain/Indicator: TA98, Metabolic Activation: NONE, Method: PREINCUBATION
[2] abbreviates: Test System: AMES SALMONELLA TYPHIMURIUM, Strain/Indicator: TA100, Metabolic Activation: NONE, Method: PREINCUBATION
Where [3] appears, read: Test System: AMES SALMONELLA TYPHIMURIUM, Strain/Indicator: TA100, Metabolic Activation: NONE, Method: STANDARD PLATE.
The mark [4] stands for this setting: Test System: AMES SALMONELLA TYPHIMURIUM, Strain/Indicator: TA1535, Metabolic Activation: NONE, Method: STANDARD PLATE.
Where [5] appears, read: Test System: AMES SALMONELLA TYPHIMURIUM, Strain/Indicator: TA100, Metabolic Activation: RAT, LIVER, S-9, AROCLOR 1254, Method: STANDARD PLATE.

As for `O=C1OC2(c3ccccc31)c1cc(I)c(O)c(I)c1Oc1c2cc(I)c(O)c1I`, the mutagenic call by setting is: (Test System: AMES SALMONELLA TYPHIMURIUM, Strain/Indicator: TA97A, Metabolic Activation: NONE, Method: PREINCUBATION) “inactive; negative”; (Test System: AMES SALMONELLA TYPHIMURIUM, Strain/Indicator: TA97A, Metabolic Activation: RAT CECAL CELL-FREE EXTRACTS, Method: PREINCUBATION) “inactive; negative”; (Test System: AMES SALMONELLA TYPHIMURIUM, Strain/Indicator: TA97A, Metabolic Activation: RAT, LIVER, S9, AROCLOR 1254, Method: PREINCUBATION) “inactive; negative”; under setting [1], “inactive; negative”; (Test System: AMES SALMONELLA TYPHIMURIUM, Strain/Indicator: TA98, Metabolic Activation: NONE, Method: STANDARD PLATE) “inactive; negative”; (Test System: AMES SALMONELLA TYPHIMURIUM, Strain/Indicator: TA98, Metabolic Activation: RAT CECAL CELL-FREE EXTRACTS, Method: PREINCUBATION) “inactive; negative”. The mutagenic call is, setting by setting: (Test System: AMES SALMONELLA TYPHIMURIUM, Strain/Indicator: TA98, Metabolic Activation: RAT, LIVER, S9, AROCLOR 1254, Method: PREINCUBATION) “inactive; negative”; (Test System: AMES SALMONELLA TYPHIMURIUM, Strain/Indicator: TA98, Metabolic Activation: RAT, LIVER, S9, AROCLOR 1254, Method: STANDARD PLATE) “inactive; negative”; (Test System: AMES SALMONELLA TYPHIMURIUM, Strain/Indicator: TA98, Metabolic Activation: S9, Method: PREINCUBATION) “inactive; negative”; under setting [2], “inactive; negative”; under setting [3], “inactive; negative”; (Test System: AMES SALMONELLA TYPHIMURIUM, Strain/Indicator: TA100, Metabolic Activation: RAT CECAL CELL-FREE EXTRACTS, Method: PREINCUBATION) “inactive; negative”. In addition, the mutagenic call reads like this: (Test System: AMES SALMONELLA TYPHIMURIUM, Strain/Indicator: TA100, Metabolic Activation: RAT, LIVER, S9, AROCLOR 1254, Method: PREINCUBATION) “inactive; negative”; (Test System: AMES SALMONELLA TYPHIMURIUM, Strain/Indicator: TA100, Metabolic Activation: RAT, LIVER, S9, AROCLOR 1254, Method: STANDARD PLATE) “inactive; negative”; (Test System: AMES SALMONELLA TYPHIMURIUM, Strain/Indicator: TA100, Metabolic Activation: S9, Method: PREINCUBATION) “inactive; negative”; (Test System: AMES SALMONELLA TYPHIMURIUM, Strain/Indicator: TA102, Metabolic Activation: NONE, Method: PREINCUBATION) “inactive; negative”; (Test System: AMES SALMONELLA TYPHIMURIUM, Strain/Indicator: TA102, Metabolic Activation: RAT CECAL CELL-FREE EXTRACTS, Method: PREINCUBATION) “inactive; negative”; (Test System: AMES SALMONELLA TYPHIMURIUM, Strain/Indicator: TA102, Metabolic Activation: RAT, LIVER, S9, AROCLOR 1254, Method: PREINCUBATION) “inactive; negative”. Also, the mutagenic call (Test System: AMES SALMONELLA TYPHIMURIUM, Strain/Indicator: TA104, Metabolic Activation: NONE, Method: PREINCUBATION) was “inactive; negative”; the mutagenic call (Test System: AMES SALMONELLA TYPHIMURIUM, Strain/Indicator: TA104, Metabolic Activation: RAT CECAL CELL-FREE EXTRACTS, Method: PREINCUBATION) is “inactive; negative”; the mutagenic call (Test System: AMES SALMONELLA TYPHIMURIUM, Strain/Indicator: TA104, Metabolic Activation: RAT, LIVER, S9, AROCLOR 1254, Method: PREINCUBATION) was “inactive; negative”; the mutagenic call under setting [4] was “inactive; negative”; the mutagenic call (Test System: AMES SALMONELLA TYPHIMURIUM, Strain/Indicator: TA1535, Metabolic Activation: RAT, LIVER, S9, AROCLOR 1254, Method: STANDARD PLATE) was “inactive; negative”; the mutagenic call (Test System: AMES SALMONELLA TYPHIMURIUM, Strain/Indicator: TA1537, Metabolic Activation: NONE, Method: STANDARD PLATE) is “inactive; negative”. In addition, the mutagenic call (Test System: AMES SALMONELLA TYPHIMURIUM, Strain/Indicator: TA1537, Metabolic Activation: RAT, LIVER, S9, AROCLOR 1254, Method: STANDARD PLATE) was “inactive; negative”; the mutagenic call (Test System: AMES SALMONELLA TYPHIMURIUM, Strain/Indicator: TA1538, Metabolic Activation: NONE, Method: STANDARD PLATE) is “inactive; negative”; the mutagenic call (Test System: AMES SALMONELLA TYPHIMURIUM, Strain/Indicator: TA1538, Metabolic Activation: RAT, LIVER, S9, AROCLOR 1254, Method: STANDARD PLATE) was “inactive; negative”; the mutagenic call (Test System: MOUSE LYMPHOMA, Strain/Indicator: L5178Y (TK+/TK-), Metabolic Activation: RAT, LIVER, S9, AROCLOR 1254, Method: SUSPENSION/PLATE) was “inactive; negative”.
With `CCOc1ccc(N)cc1`, the mutagenic call is “inactive; negative” (Test System: AMES SALMONELLA TYPHIMURIUM, Strain/Indicator: TA98, Metabolic Activation: HAMSTER, LIVER, S-9, AROCLOR 1254 (30%), Method: PREINCUBATION); “inactive; negative” under setting [1]; “inactive; negative” (Test System: AMES SALMONELLA TYPHIMURIUM, Strain/Indicator: TA98, Metabolic Activation: RAT, LIVER, S-9, AROCLOR 1254 (30%), Method: PREINCUBATION); “active; positive” (Test System: AMES SALMONELLA TYPHIMURIUM, Strain/Indicator: TA100, Metabolic Activation: HAMSTER, LIVER, S-9, AROCLOR 1254 (30%), Method: PREINCUBATION); “active; positive” (Test System: AMES SALMONELLA TYPHIMURIUM, Strain/Indicator: TA100, Metabolic Activation: HAMSTER, LIVER, S-9, KANECHLOR 400, Method: PREINCUBATION); “inactive; negative” under setting [2]. The mutagenic call is “active; positive” (Test System: AMES SALMONELLA TYPHIMURIUM, Strain/Indicator: TA100, Metabolic Activation: RAT, LIVER, S-9, AROCLOR 1254 (30%), Method: PREINCUBATION) and “inactive; negative” (Test System: UDS RODENT HEPATOCYTES, Strain/Indicator: THY INCORP (NON-S-PHASE), Metabolic Activation: NONE, Method: AUTORADIOGRAPHY).
Regarding `CC(C)N(N)C(C)C`, the mutagenic call is, setting by setting: under setting [3], “inactive; negative”; under setting [5], “inactive; negative”; (Test System: AMES SALMONELLA TYPHIMURIUM, Strain/Indicator: TA102, Metabolic Activation: NONE, Method: STANDARD PLATE) “inactive; negative”; (Test System: AMES SALMONELLA TYPHIMURIUM, Strain/Indicator: TA102, Metabolic Activation: RAT, LIVER, S-9, AROCLOR 1254, Method: STANDARD PLATE) “inactive; negative”; under setting [4], “inactive; negative”; (Test System: AMES SALMONELLA TYPHIMURIUM, Strain/Indicator: TA1535, Metabolic Activation: RAT, LIVER, S-9, AROCLOR 1254, Method: STANDARD PLATE) “active; positive”.
Turning to `Cc1ccc2nc3c4c(ccc3c(C)c2c1)[C@H](O)[C@@H](O)C=C4`, the mutagenic call under setting [5] is “active; positive”.
`CNC(=O)c1cccc(NCC(=O)NCCc2ccc(OC)c(OC)c2)c1`: the mutagenic call was “inactive; negative” under setting [1]; “inactive; negative” (Test System: AMES SALMONELLA TYPHIMURIUM, Strain/Indicator: TA98, Metabolic Activation: S-9, Method: PREINCUBATION); “inactive; negative” under setting [2]; “inactive; negative” (Test System: AMES SALMONELLA TYPHIMURIUM, Strain/Indicator: TA100, Metabolic Activation: S-9, Method: PREINCUBATION); “inactive; negative” (Test System: AMES SALMONELLA TYPHIMURIUM, Strain/Indicator: TA1535, Metabolic Activation: NONE, Method: PREINCUBATION); “inactive; negative” (Test System: AMES SALMONELLA TYPHIMURIUM, Strain/Indicator: TA1535, Metabolic Activation: S-9, Method: PREINCUBATION). The mutagenic call is “inactive; negative” (Test System: AMES SALMONELLA TYPHIMURIUM, Strain/Indicator: TA1537, Metabolic Activation: NONE, Method: PREINCUBATION); “inactive; negative” (Test System: AMES SALMONELLA TYPHIMURIUM, Strain/Indicator: TA1537, Metabolic Activation: S-9, Method: PREINCUBATION); “inactive; negative” (Test System: E. COLI, Strain/Indicator: WP2 UVRA, Metabolic Activation: NONE, Method: PREINCUBATION); “inactive; negative” (Test System: E. COLI, Strain/Indicator: WP2 UVRA, Metabolic Activation: S-9, Method: PREINCUBATION).
